Test results as given in ChEMBL document CHEMBL4371025, “Discovery and evaluation of novel FAAH inhibitors in neuropathic pain model” (Bioorg Med Chem Lett, 2019).
Activity calls are given as the source filed them. The calls are words filed in the database; no cut-off is given here.

Legend:
[1] = AUC (0 to 48 hrs) in Sprague-Dawley rat at 3 mg/kg, po administered as single dose via gavage by LC-MS/MS analysis; type: ADME, organism-based; parameters: dose 3 mg/kg, time < 48 hr, route oral; details: in vivo
[2] = Oral bioavailability in Sprague-Dawley rat at 3 mg/kg administered as single dose via gavage by LC-MS/MS analysis; type: ADME, organism-based; details: in vivo
[3] = AUC (0 to 48 hrs) in Sprague-Dawley rat at 1 mg/kg, iv administered as single dose by LC-MS/MS analysis; type: ADME, organism-based; parameters: dose 1 mg/kg, time < 48 hr, route intravenous; details: in vivo
[4] = Elimination half life in Sprague-Dawley rat at 1 mg/kg, iv administered as single dose by LC-MS/MS analysis; type: ADME, organism-based; details: in vivo, read-out: beta t1/2 (converted)
[5] = Cmax in Sprague-Dawley rat at 3 mg/kg, po administered as single dose via gavage by LC-MS/MS analysis; type: ADME, organism-based; parameters: dose 3 mg/kg, route oral; details: in vivo
[6] = Intrinsic metabolic stability in rat liver microsomes assessed as metabolic turnover over per mg protein at 1 uM preincubated for 5 mins followed by NADPH cofactor addition and measured after 30 mins by LC-MS/MS analysis; type: ADME, Microsome; details: 0.5 h
[7] = target: T1, Fatty-acid amide hydrolase 1 (Rattus norvegicus, UniProt P97612); assay: Inhibition of rat FFAH expressed in Escherichia coli using AAMCA as substrate incubated for 1 min measured for 50 mins by fluorescence assay
T1 sequence (P97612 whole entry): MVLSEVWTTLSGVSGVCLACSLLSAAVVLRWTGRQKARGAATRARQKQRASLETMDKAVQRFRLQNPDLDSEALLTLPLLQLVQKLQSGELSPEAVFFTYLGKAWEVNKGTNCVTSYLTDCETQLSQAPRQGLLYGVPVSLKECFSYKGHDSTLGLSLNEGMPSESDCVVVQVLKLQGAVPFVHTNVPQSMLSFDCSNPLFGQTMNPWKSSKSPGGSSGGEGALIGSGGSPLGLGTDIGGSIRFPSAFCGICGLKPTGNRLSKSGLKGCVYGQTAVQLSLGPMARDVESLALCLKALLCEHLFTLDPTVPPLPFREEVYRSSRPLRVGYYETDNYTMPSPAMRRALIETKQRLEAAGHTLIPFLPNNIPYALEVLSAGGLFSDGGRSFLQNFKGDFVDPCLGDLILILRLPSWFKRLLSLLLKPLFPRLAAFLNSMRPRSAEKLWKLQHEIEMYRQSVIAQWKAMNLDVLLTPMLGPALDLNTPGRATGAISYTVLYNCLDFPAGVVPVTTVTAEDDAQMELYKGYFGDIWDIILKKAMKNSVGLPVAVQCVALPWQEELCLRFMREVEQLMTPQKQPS

[8] = Volume of distribution at steady state in Sprague-Dawley rat at 1 mg/kg, iv administered as single dose by LC-MS/MS analysis; type: ADME, organism-based; details: in vivo, read-out: Vdss
[9] = Clearance in Sprague-Dawley rat at 1 mg/kg, iv administered as single dose by LC-MS/MS analysis; type: ADME, organism-based; details: in vivo
[10] = Intrinsic metabolic stability in human liver microsomes assessed as metabolic turnover rate per mg protein at 1 uM preincubated for 5 mins followed by NADPH cofactor addition and measured after 30 mins by LC-MS/MS analysis; type: ADME, Microsome; details: 0.5 h
Rattus norvegicus [11] = assay: Antihyperalgesic activity in Sprague-Dawley rat model of cisplatin-induced peripheral neuropathy assessed as increase in paw withdrawal latency at 40 mg/kg, po administered once daily via gavage for 7 days measured 4 hrs post last dose by plantar test; type: functional, organism-based
[12] = target: T2, Fatty-acid amide hydrolase 1 (Homo sapiens, UniProt O00519); assay: Inhibition of human transmembrane domain deficient FFAH expressed in Escherichia coli using AAMCA as substrate incubated for 1 min measured for 50 mins by fluorescence assay
T2 sequence (O00519 whole entry): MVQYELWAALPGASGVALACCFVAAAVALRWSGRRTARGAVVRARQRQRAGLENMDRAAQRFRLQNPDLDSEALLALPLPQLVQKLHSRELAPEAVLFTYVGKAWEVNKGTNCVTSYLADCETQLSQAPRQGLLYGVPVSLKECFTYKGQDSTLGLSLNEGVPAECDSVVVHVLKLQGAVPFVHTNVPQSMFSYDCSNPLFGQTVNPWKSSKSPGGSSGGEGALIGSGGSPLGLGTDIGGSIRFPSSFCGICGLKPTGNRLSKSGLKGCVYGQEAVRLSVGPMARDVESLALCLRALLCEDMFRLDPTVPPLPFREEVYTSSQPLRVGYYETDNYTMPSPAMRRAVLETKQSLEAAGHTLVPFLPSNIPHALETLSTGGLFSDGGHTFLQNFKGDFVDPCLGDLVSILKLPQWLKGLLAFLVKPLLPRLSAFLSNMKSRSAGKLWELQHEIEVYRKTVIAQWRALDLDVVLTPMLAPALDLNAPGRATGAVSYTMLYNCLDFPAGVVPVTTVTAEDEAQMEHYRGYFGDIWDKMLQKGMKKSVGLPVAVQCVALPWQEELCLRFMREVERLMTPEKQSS

Rattus norvegicus [13] = assay: Antihyperalgesic activity in Sprague-Dawley rat model of cisplatin-induced peripheral neuropathy assessed as increase in paw withdrawal latency at 10 mg/kg, po administered once daily via gavage for 7 days measured 4 hrs post last dose by plantar test; type: functional, organism-based
[14] = target: T3, Fatty-acid amide hydrolase 1 (Rattus norvegicus) (UniProt P97612); assay: Inhibition of rat FFAH expressed in Escherichia coli at 10 uM using AAMCA as substrate incubated for 1 min measured for 50 mins by fluorescence assay relative to control
T3 sequence (whole entry): T1 sequence (P97612 whole entry)

Rattus norvegicus [15] = assay: Antihyperalgesic activity in Sprague-Dawley rat model of cisplatin-induced peripheral neuropathy assessed as increase in paw withdrawal latency at 3 mg/kg, po administered as single dose via gavage measured 4 hrs post dose by plantar test; type: functional, organism-based
Rattus norvegicus [16] = assay: Antihyperalgesic activity in Sprague-Dawley rat model of cisplatin-induced peripheral neuropathy assessed as increase in paw withdrawal latency at 30 mg/kg, po administered as single dose via gavage measured 4 hrs post dose by plantar test; type: functional, organism-based
Rattus norvegicus [17] = assay: Antihyperalgesic activity in Sprague-Dawley rat model of cisplatin-induced peripheral neuropathy assessed as increase in paw withdrawal latency at 30 mg/kg, po administered once daily via gavage for 6 days measured 24 hrs post last dose by plantar test; type: functional, organism-based
Rattus norvegicus [18] = assay: Antihyperalgesic activity in Sprague-Dawley rat model of cisplatin-induced peripheral neuropathy assessed as increase in paw withdrawal latency at 30 mg/kg, po administered once daily via gavage for 7 days measured 4 hrs post last dose by plantar test; type: functional, organism-based
[19] = target: T4, Fatty-acid amide hydrolase 1 (Homo sapiens) (UniProt O00519); assay: Substrate activity at human transmembrane domain deficient FFAH expressed in Escherichia coli assessed as parent compound remaining at 2 times IC50 after 60 mins by MS analysis
T4 sequence (whole entry): T2 sequence (O00519 whole entry)

[20] = target: T4, Fatty-acid amide hydrolase 1 (Homo sapiens); assay: Substrate activity at human transmembrane domain deficient FFAH expressed in Escherichia coli assessed as parent compound remaining at 2 times IC50 after 30 mins by MS analysis
[21] = target: T4, Fatty-acid amide hydrolase 1 (Homo sapiens); assay: Reversible inhibition of human transmembrane domain deficient FFAH expressed in Escherichia coli assessed as residual activity at 10 times IC50 using AAMCA as substrate preincubated for 1 hr followed by substrate addition and subsequent 10 fold compound dilution by fluorescence assay relative to control
[22] = target: T4, Fatty-acid amide hydrolase 1 (Homo sapiens); assay: Substrate activity at human transmembrane domain deficient FFAH expressed in Escherichia coli assessed as parent compound remaining at 2 times IC50 after 15 mins by MS analysis
[23] = target: T4, Fatty-acid amide hydrolase 1 (Homo sapiens); assay: Substrate activity at human transmembrane domain deficient FFAH expressed in Escherichia coli assessed as parent compound remaining at 2 times IC50 measured immediately by MS analysis
[24] = target: T4, Fatty-acid amide hydrolase 1 (Homo sapiens); assay: Reversible inhibition of human transmembrane domain deficient FFAH expressed in Escherichia coli assessed as residual activity at 10 times IC50 using AAMCA as substrate preincubated for 1 hr followed by substrate addition by fluorescence assay relative to control
[25] = target: T3, Fatty-acid amide hydrolase 1 (Rattus norvegicus); assay: Inhibition of rat FFAH expressed in Escherichia coli at 100 nM using AAMCA as substrate incubated for 1 min measured for 50 mins by fluorescence assay relative to control
[26] = AUC (0 to 48 hrs) in plasma of Sprague-Dawley rat at 10 mg/kg, po administered as single dose via gavage by LC-MS/MS analysis; type: ADME, organism-based; parameters: time < 48 hr, dose 10 mg/kg, route oral
[27] = Cmax in Sprague-Dawley rat at 10 mg/kg, po administered as single dose via gavage by LC-MS/MS analysis; type: ADME, organism-based; parameters: dose 10 mg/kg, route oral; details: in vivo
[28] = Oral bioavailability in Sprague-Dawley rat at 10 mg/kg administered as single dose via gavage by LC-MS/MS analysis; type: ADME, organism-based; details: in vivo

Row | Structure (SMILES) | Drug metabolism [6] [nmol/min/mg] | IC50 [7] [nM] | Drug metabolism [10] [nmol/min/mg] | IC50 [12] [nM] | further results
1 | O=C(NC1CCC(=Cc2cccc(Oc3ccc(C(F)(F)F)cn3)c2)CC1)c1cnc2[nH]ccc2c1 (racemic) | 0.04 | 17.2 | 0.08 | – | AUC(0-t) at 48 h [1]: 3 µM·h; bioavailability [2]: 7.2%; AUC(0-t) at 48 h [3]: 14.3 µM·h; half-life [4]: 7.3 h; Cmax [5]: 190 nM; Vd [8]: 1 L/kg; clearance [9]: 2.2 mL/min/kg
2 | COc1cccc([C@@]2(O)CCCC[C@@H]2CN(C)C)c1 | – | – | – | – | Activity (Rattus norvegicus [11]): Active
3 | O=C(Nc1cccnn1)N1CCC(=Cc2cccc(Oc3ccc(C(F)(F)F)cn3)c2)CC1 | – | 5.7 | – | 1.8 | Activity (Rattus norvegicus [13]): Active
4 | Nc1ncc(C(=O)N[C@H]2CC/C(=C/c3cccc(Oc4ccc(C(F)(F)F)cn4)c3)CC2)cn1 (centres undefined) | – | 1500 | – | 83 | –
5 | Nc1ncc(C(=O)NC2CCC(=Cc3cccc(Oc4ccc(C(F)(F)F)cn4)c3)CC2)cn1 (racemic) | 0.02 | – | 0.03 | 2 | –
6 | Nc1ncc(C(=O)NC2CCC(=Cc3cccc(Oc4ccc(C(F)(F)F)cn4)c3)CC2)cc1Cl (racemic) | < 0.04 | 52 | 0.06 | 4 | –
7 | O=C(NC1CCC(=Cc2cccc(Oc3ccc(C(F)(F)F)cn3)c2)CC1)c1cccnn1 (racemic) | – | – | – | 9 | –
8 | Nc1ccc(C(=O)NC2CCC(=Cc3cccc(Oc4ccc(C(F)(F)F)cn4)c3)CC2)cn1 (centres undefined) | – | – | – | – | inhibition [14]: 70%
9 | O=C(NC1CCC(=Cc2cccc(Oc3ccc(C(F)(F)F)cn3)c2)CC1)c1ccc(Cl)nc1 (racemic) | 0.04 | 80.7 | 0.06 | 5.1 | –
10 | Cc1cc(C(=O)N[C@H]2CC/C(=C/c3cccc(Oc4ccc(C(F)(F)F)cn4)c3)CC2)cnc1N (centres undefined) | – | 2300 | – | 227 | –
11 | Nc1ccc(C(=O)NC2CCC(=Cc3cccc(Oc4ccc(C(F)(F)F)cn4)c3)CC2)cn1 (racemic) | 0.05 | 31.3 | 0.07 | – | –
12 | Cc1cc(C(=O)NC2CCC(=Cc3cccc(Oc4ccc(C(F)(F)F)cn4)c3)CC2)cnc1N (centres undefined) | – | – | – | – | Activity (Rattus norvegicus [15]): inactive; Activity (Rattus norvegicus [16]): Active; Activity (Rattus norvegicus [17]): Active; Activity (Rattus norvegicus [18]): Active
13 | O=C(N[C@H]1CC/C(=C/c2cccc(Oc3ccc(C(F)(F)F)cn3)c2)CC1)c1cccnc1 (centres undefined) | – | – | – | 414 | –
14 | Cc1cc(C(=O)NC2CCC(=Cc3cccc(Oc4ccc(C(F)(F)F)cn4)c3)CC2)cnc1N (racemic) | 0.04 | – | 0.09 | – | –
15 | O=C(NC1CCC(=Cc2cccc(Oc3ccc(C(F)(F)F)cn3)c2)CC1)c1cccnc1 (centres undefined) | – | – | – | – | inhibition [14]: 60%
16 | O=C(NC1CCC(=Cc2cccc(Oc3ccc(C(F)(F)F)cn3)c2)CC1)c1ccc(-n2nccn2)nc1 (racemic) | 0.04 | – | 0.09 | – | –
17 | O=C(Nc1cccnc1)N1CCC(Cc2cccc(Oc3ccc(C(F)(F)F)cn3)c2)CC1 | – | 11.5 | – | 2.6 | Activity [19]: 40.4%; Activity [20]: 54.4%; Activity [21]: inactive; Activity [22]: 77.2%; Activity [23]: 100%; Activity [24]: 20%
18 | O=C(NC1CCC(=Cc2cccc(Oc3ccc(C(F)(F)F)cn3)c2)CC1)c1ccncc1 (racemic) | – | – | – | – | inhibition [25]: 15%
19 | O=C(NC1CCC(=Cc2cccc(Oc3ccc(C(F)(F)F)cn3)c2)CC1)c1cc[nH]n1 (racemic) | – | 266 | – | – | –
20 | O=C(CCCCCCc1ccccc1)c1ncc(-c2ccccn2)o1 | – | – | – | – | Activity [21]: 30%
21 | Nc1ccc(C(=O)N[C@H]2CC/C(=C/c3cccc(Oc4ccc(C(F)(F)F)cn4)c3)CC2)cn1 (centres undefined) | – | – | – | 450 | –
22 | O=C(NC1CCC(=Cc2cccc(Oc3ccc(C(F)(F)F)cn3)c2)CC1)c1cncnc1 (racemic) | 0.07 | – | < 0.04 | – | –
23 | O=C(NC1CCC(=Cc2cccc(Oc3ccc(C(F)(F)F)cn3)c2)CC1)c1cccnc1 (racemic) | 0.06 | – | 0.06 | 2.2 | –
24 | Nc1ncc(C(=O)NC2CCC(=Cc3cccc(Oc4ccc(C(F)(F)F)cn4)c3)CC2)cn1 (centres undefined) | – | – | – | – | Activity (Rattus norvegicus [15]): inactive; Activity (Rattus norvegicus [16]): Active; Activity (Rattus norvegicus [17]): Active; Activity (Rattus norvegicus [18]): Active
25 | O=C(NC1CCC(=Cc2cccc(Oc3ccc(C(F)(F)F)cn3)c2)CC1)c1cn[nH]c1 (racemic) | < 0.04 | 64.6 | 0.04 | – | –
26 | O=C(NC1CCC(=Cc2cccc(Oc3ccc(C(F)(F)F)cn3)c2)CC1)c1ccc(-n2cccn2)nc1 (racemic) | 0.09 | 6.6 | 0.11 | 6.7 | AUC(0-t) at 48 h [3]: 8 µM·h; half-life [4]: > 10 h; AUC(0-t) at 48 h [26]: 0.9 µM·h; Cmax [27]: 90 nM; Vd [8]: 4.6 L/kg; bioavailability [28]: 1.2%; clearance [9]: 2.4 mL/min/kg
